Results on two compounds are retold here after US10271557B2, “Composition comprising a bacteriocin and an extract from a plant of the Labiatae family” (DUPONT NUTRITION BIOSCIENCES APS, priority 2003, dated 2019).

The test system of experiment [1] is Listeria monocytogenes and B. cereus strains. Put plainly: In vitro synergy with nisin in Bioscreen, 24 h at 30° C. The experiment is classed as cell-based, Listeria monocytogenes; Bacillus cereus. As to conditions: combined with nisin. Here is the method:
Growth curves of Listeria monocytogenes and B. cereus strains in laboratory media were analysed as described above using the Bioscreen C analyser. Minimal inhibitory concentrations (MIC) were determined for the test compounds used singly or in combination after 24 h at 30° C. […] These had been prepared by selected extraction with either organic solvents or CO2 to obtain extracts containing 28% phenolic diterpenes (28RE; Danisco) and a rosemary extract containing 6% rosmarinic acid (6RA; Danisco).

The subject of experiment [2] is Listeria monocytogenes strains 272, CRA3930 and NCTC12426. Put plainly: Kill of Listeria in chicken soup at 20° C. with nisin and rosemary extract components. The experiment is classed as cell-based. As to conditions: FIGS. 4 and 5. Here is the method:
The chicken soup model was used as before. The following samples were tested: GRE09, deodorised rosemary extracts containing 28% or 70% phenolic diterpenes (RE28 and RE70; Danisco), a water soluble rosemary extract containing 6% rosmarinic acid (6RA; Danisco) and pure rosmarinic acid (RA; Sigma). Additions to the soup were made as appropriate. The soup was pasteurised (70° C./2 minutes), the pH recorded and the soup was then inoculated with a cocktail of Listeria cells prepared as described before. The tests were incubated at 20° C. and viable count enumeration performed after 0, 2, 4 and 24 h at 20° C. Initial Listeria levels were 1.3×10^5 CFU/ml. The test was repeated at two nisin levels and over different time periods. The pH of the soup without addition was pH 6.06-6.20.

Another experiment relates to B. cereus Campden spores. As to the kind of experiment: MIC in Bioscreen after 24 h at 30° C. in laboratory medium. The format is cell-based, Bacillus cereus. The note with it: alone. Here is the method:
(§1) A 100,000 ppm GRE09 solution was prepared in water and filter sterilised (0.2 μm). Further dilutions were prepared in sterile deionised water at 1,250-20,000 ppm. Brain Heart Infusion broth (Oxoid) was prepared and GRE09 stock solutions were added to give the following test solutions of GRE09; 125, 250, 500, 750, 1000, 1250, 1500, 2000 ppm. […] A fully automated microbial growth analyser was used to determine microbial growth curves (Microbiology Reader Bioscreen C analyser linked to a PC with installed software BioLink v 5.30; Labsystem Oy, Finland). Tests were prepared in honeycomb 2 (HC 2) microtitre/cuvette plates with a capacity of 100 wells per plate. The wells were loaded with 270 μl of the prepared media and inoculated at a level of 10^3 CFU (colony forming units)/ml with 30 μl of microbial suspension. Incubation time and temperature was as appropriate for the test organism. This test allowed suitable test levels for the compounds to be determined. The rosemary extract and nisin were then tested in combination, using the same procedure. […] GRE09 solutions were prepared at 250, 500 and 1000 ppm as above. Combinations of all these test levels were prepared and tested in the Bioscreen as before.
(§2) Growth curves of Listeria monocytogenes and B. cereus strains in laboratory media were analysed as described above using the Bioscreen C analyser. […]

The test system of experiment [3] is L. monocytogenes strain S23. The experiment is described as above. The format is cell-based, Listeria monocytogenes. As to conditions: alone. On the procedure: as §1, §2

Consider `O=C(/C=C/c1ccc(O)c(O)c1)O[C@H](Cc1ccc(O)c(O)c1)C(=O)O` [RA, rosmarinic acid], for which the “effect of the substance on nisin activity (synergy) in laboratory medium” value in experiment [1] is given as “Enhanced nisin activity”. In experiment [2], the “synergy with nisin in achieving kill of Listeria cells” value was “evident but not as strong”. The “MIC in Bioscreen after 24 h at 30° C., individual components” value (with B. cereus Campden spores; in experiment [3]) was 1% RA throughout.
Take `CC(O)CO` (centres unmarked) [propylene glycol]: the “effect of the substance on nisin activity (synergy) in laboratory medium” value in experiment [1] was “did not enhance nisin activity”.
